What was measured:
Format in all cases: cell-based
human PBMC [1] = assay: MTT viability of human PBMC; conditions: 10 μM, 18 h incubation
HepG2 cells = assay: MTT assay in HepG2 cells; conditions: compounds tested at 10 μM; normalized with OD570-650 of vehicle treatment; in % (unit assumed)
[2] = system: human TLRs (TLR2, TLR3, TLR4/MD-2/CD14, TLR5, TLR7, TLR8 or TLR9); assay: Human TLR-transfected HEK293 NF-κB SEAP reporter cell panel; conditions: 10 μM, 20-24 h
Procedure: To identify the target receptor, we used HEK293 cells stably transfected with the following human TLRs (TLR2, TLR3, TLR4/MD-2/CD14, TLR5, TLR7, TLR8 or TLR9) along with an NF-κB activation reporter producing Secreted Alkaline Phosphatase (SEAP, FIG. 1A). To further confirm that TLR4 was indeed the receptor, compound 1a was assayed for IL-6 production in mBMDCs from wild type and TLR4 deficient mice (FIG. 1B). […] TLR4 signals through two distinct pathways, leading respectively to NF-κB dependent cytokines and type I interferon (IFN) production. Several naturally occurring TLR4 ligands and MPLA have been reported to require CD14 to activate the IFN regulatory pathway. The hTLR4 reporter cell line (FIG. 1A) also overexpresses hMD-2 and hCD14, which are TLR4 accessory proteins.
In vitro assays using TLR reporter cell lines. Murine or humanTLR4 HEK Blue™ cells (Invivogen, 2.5×10^4 cells per well of a 96 well plate), or NF-κB/SEAPorter™ HEK 293 cells (Imgenex, San Diego, Calif.) for human TLR2, TLR3, TLR5, TLR7, TLR8, or TLR9 (5×10^4 cells per well of 96 well plate) were incubated with graded doses of the test compound. […] Secreted alkaline phosphatase (SEAP) activity in the supernatants was determined by a colorimetric assay, using either the SEAPorter Assay Kit (Imgenex, San Diego, Calif.), with absorbance read at 405 nm, or QuantiBlue (Invivogen), with absorbance read at 630 nm. […]

TLR4/MD-2/CD14 = target: T1, TLR4/MD-2/CD14 (Homo sapiens, UniProt O00206+Q9Y6Y9); assay: hTLR4 HEK Blue reporter cells, NF-κB SEAP secretion (QuantiBlue OD630)
T1 construct: host or cells: HEK293 (HEK Blue hTLR4)
T1 sequence (O00206 24-839): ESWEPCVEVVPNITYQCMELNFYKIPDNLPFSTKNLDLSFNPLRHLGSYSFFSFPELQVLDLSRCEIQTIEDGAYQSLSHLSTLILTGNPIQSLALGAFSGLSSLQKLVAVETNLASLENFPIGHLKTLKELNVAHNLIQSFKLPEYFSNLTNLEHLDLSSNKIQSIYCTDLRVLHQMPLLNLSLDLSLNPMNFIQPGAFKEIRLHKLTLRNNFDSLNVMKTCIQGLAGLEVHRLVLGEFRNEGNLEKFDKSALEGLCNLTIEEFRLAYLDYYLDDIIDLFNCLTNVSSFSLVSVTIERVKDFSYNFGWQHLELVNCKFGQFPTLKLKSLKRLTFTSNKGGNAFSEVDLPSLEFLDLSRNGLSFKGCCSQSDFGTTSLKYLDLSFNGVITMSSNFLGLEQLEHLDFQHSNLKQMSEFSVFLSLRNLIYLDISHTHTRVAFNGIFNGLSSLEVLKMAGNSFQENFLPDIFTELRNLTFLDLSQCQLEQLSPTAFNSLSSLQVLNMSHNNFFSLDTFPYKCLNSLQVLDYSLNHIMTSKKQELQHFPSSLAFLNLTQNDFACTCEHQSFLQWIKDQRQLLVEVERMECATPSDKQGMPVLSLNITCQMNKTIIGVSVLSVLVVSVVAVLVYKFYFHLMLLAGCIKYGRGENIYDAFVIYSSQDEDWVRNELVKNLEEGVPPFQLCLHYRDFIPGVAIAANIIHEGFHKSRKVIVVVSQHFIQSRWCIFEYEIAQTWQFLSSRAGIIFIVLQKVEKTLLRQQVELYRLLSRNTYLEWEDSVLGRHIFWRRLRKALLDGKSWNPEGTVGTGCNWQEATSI
T1 sequence (Q9Y6Y9 19-160): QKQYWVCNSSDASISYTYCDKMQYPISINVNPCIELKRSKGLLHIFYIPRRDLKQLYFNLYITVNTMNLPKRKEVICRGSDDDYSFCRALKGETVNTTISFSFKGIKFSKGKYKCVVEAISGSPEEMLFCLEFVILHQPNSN
Procedure: In vitro assays using TLR reporter cell lines. Murine or humanTLR4 HEK Blue™ cells (Invivogen, 2.5×10^4 cells per well of a 96 well plate), or NF-κB/SEAPorter™ HEK 293 cells (Imgenex, San Diego, Calif.) for human TLR2, TLR3, TLR5, TLR7, TLR8, or TLR9 (5×10^4 cells per well of 96 well plate) were incubated with graded doses of the test compound. The culture supernatants were harvested after a 20-24 h incubation period. Secreted alkaline phosphatase (SEAP) activity in the supernatants was determined by a colorimetric assay, using either the SEAPorter Assay Kit (Imgenex, San Diego, Calif.), with absorbance read at 405 nm, or QuantiBlue (Invivogen), with absorbance read at 630 nm. In some experiments, graded concentrations of LPS-RS ([…], Invivogen) were used to test TLR4-specific binding of the hit compound.

mBMDC = assay: IL-6 induction in mouse bone marrow derived dendritic cells (wild type or gene deficient)
Excerpt: Animals. Seven to 9 week-old C57BL/6 (wild type, WT) and Cd14^−/− (C57BL/6 background) mice were purchased from the Jackson Laboratories (Bar Harbor, Mass.). Tlr4^−/− mice (C57BL/6 background) were a gift from Dr. Shizuo Akira (Osaka University, Japan) and were backcrossed for 10 generations onto the C57BL/6 background at University of California, San Diego (UCSD). MD-2^−/− mice (C57BL/6 background) were originally generated by Dr. K. Miyake (University of Tokyo, Tokyo, Japan) and were kindly provided by Dr. L. Hajjar (University of Washington, Seattle, Wash.). Human TLR4 transgenic mice on murine TLR4/MD-2 null C57BL/6 background were kindly provided by Dr. L. Hajjar.^3 All animal experiments were approved by the UCSD Institutional Animal Care and Use Committee.
In vitro cytokine induction in bone marrow derived dendritic cells (BMDC) and macrophages (BMDM). BMDC or BMDM were prepared from C57BL/6 mice as described.^4 BMDC or BMDM (10^5 cells per well) were plated in 96-well plates in 200 μl complete RPMI1640 (Omega Scientific, Tarzana, Calif.) supplemented with 10% fetal calf serum (Sigma Aldrich), 100 U/mL penicillin and 100 μg/mL streptomycin (Life Technologies). The cells were incubated with graded concentrations of the compounds for 18 h at 37° C., 5% CO2. After 18 h incubation, the cell culture supernatants were collected. LPS (100 ng/mL, L2654, E coli; B6, Sigma) or MPLA (1 μg/mL synthetic MPLA, Invivogen) were used as positive controls. The levels of IL-6 or IP-10 in the culture supernatants were determined by ELISA (BD Biosciences, La Jolla, Calif.).^5 Finally, all levels of cytokine release were normalized to those of LPSstimulation within each experiment, set at 100.

mouse BMDC = assay: MTT viability of mouse BMDC; conditions: 10 μM, 18 h incubation
human PBMC [3] = assay: CD80 and CD83 expression in CD11c+ HLA-DR+ human PBMC (flow cytometry); conditions: 5 μM overnight; CD11c+HLA-DR+ gated population
Procedure: FIG. 2. Compound 1a induces type I IFN and expression of co-stimulatory molecules. A) Human PBMC were incubated with compound 1a (10 μM), LPS (10 ng/mL), or vehicle overnight. The release of type I IFN in the culture supernatants was measured by luciferase release in L929-ISRE reporter cells. Data shown are mean±SEM of triplicates. B) Compound 1a- or vehicle-treated wild type or Tlr4^−/−mBMDC were stained for CD11c and either CD40, CD80, or CD86. The expression levels of CD40, CD80, or CD86 were evaluated in the gated CD11c^+ population. DMSO 0.5% served as the vehicle control. C) Human PBMC were incubated with compound 1a (5 μM) overnight. CD80 and CD83 expression in gated CD11c^+ HLA-DR^+ population was analyzed by flow cytometer. Data are representative of two independent experiments showing similar results.
To evaluate whether treatment of DCs with this compound can induce maturation in these cells, mBMDC prepared from wild type or TLR4 deficient mice were exposed to compound 1a and then assayed for expression of co-stimulatory molecules CD40, CD80, and CD86 in the CD11c+ population (FIG. 2B). […] Induction of co-stimulatory molecules by compound 1a was also confirmed in human PBMC.

human PBMC [4] = assay: IL-8 release in human PBMC (ELISA)
Procedure: In vitro activities in human peripheral blood mononuclear cells (PBMC). Human PBMC were isolated from buffy coats obtained from the San Diego Blood Bank (San Diego, Calif.) as described previously.^5,6 PBMC (1×10^6/mL) were incubated with various compounds in complete RPMI (Omega Scientific) for 18 h at 37° C., 5% CO2 and culture supernatants were collected. The levels of IL-8 in the supernatants were determined by ELISA (BD Biosciences).

HepG2 MT (HepG2 cells): 93.5
hTLR4 0.5 μM (TLR4/MD-2/CD14; 0.5 μM, Quantiblue OD630 of hTLR4 HEK Blue cells, normalized to LPS positive control=100): 49.1
NF-κB activation induced by compound in presence of competitive antagonist LPS-RS (TLR4/MD-2/CD14; 10 μM compound, LPS-RS 12, 111, 1000 ng/mL, dose dependent): inhibited
SMILES: CCOC(=O)c1nc(Nc2cc(Oc3ccccc3)cc([N+](=O)[O-])c2)c2ccccc2n1 [Compound 1a, Ethyl 4-((3-nitro-5-phenoxyphenyl)amino)quinazoline-2-carboxylate]
Viability by MTT assay (human PBMC [1]): 112±2.1%
NF-κB activation (SEAP) across TLR transfected cells [2]: only those expressing TLR4/MD-2/CD14 responded
Dependence of IL-6 production on CD14 and MD-2 (mBMDC; 10 μM, mBMDC genetically deficient for CD14 or MD-2): not to be dependent on CD14, but dependent on MD-2
IL-6 secretion induced in mBMDC on genetic disruption of TLR4 (mBMDC; 10 μM, wild type vs TLR4 deficient mice): completely abrogated
Concentration inducing detectable levels of IL-6 (mBMDC; mBMDC, graded concentrations, compared with IL-8 in hPBMC): higher concentrations were required
Viability by MTT assay (mouse BMDC): 117±2.6%
Expression of CD80 and CD83 (human PBMC [3]): increased expression of CD80 and CD83
IL-8 release (% of LPS control) at 0.5 µM (human PBMC [4]; Homo sapiens, PBMC, 18 h, 0.5 μM, IL-8 release, normalized to LPS positive control=100): 22.2%
Concentration inducing detectable levels of IL-8 (human PBMC [4]; hPBMC, graded concentrations): below 1 μM
IL-8 release in presence of polymyxin B (human PBMC [4]; polymyxin B 10 μg/mL, overnight): not reduced

Source: patent US20150132342A1, “NOVEL IMMUNE ACTIVATORS: SUBSTITUTE 4-AMINOQUINAZOLINES” (The Regents of the University of California, priority 2013, published 2015)
